From US20060069132A1, “Azolecarboxamide herbicides” (priority 2004, published 2006)

Experiments:
Assay in all cases: Test C pre-/postemergence herbicide test
[1] = test system: Surinam grass; assay type: in vivo, Urochloa decumbens
Summary of the method: (§1)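 Pre- and postemergence application, solvent/surfactant formulation; post at 1- to 4-leaf stage (2–18 cm). Greenhouse 12–14 d. Visual rating vs controls, 0 = no effect, 100 = complete control.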

[2] = test system: corn; assay type: in vivo, Zea mays
Summary of the method: as §1

[3] = test system: giant foxtail; assay type: in vivo, Setaria faberi
Summary of the method: as §1

[4] = test system: johnsongrass; assay type: in vivo, Sorghum halepense
Summary of the method: as §1

[5] = test system: lambsquarters; assay type: in vivo, Chenopodium album
Summary of the method: as §1

[6] = test system: morningglory; assay type: in vivo, Ipomoea coccinea; parameters: key to Plant response rating, Morningglory: 0 = no effect, 100 = complete control
Summary of the method: as §1

[7] = test system: eastern black nightshade; assay type: in vivo, Solanum ptycanthum
Summary of the method: as §1

[8] = test system: yellow nutsedge; assay type: in vivo, Cyperus esculentus
Summary of the method: as §1

[9] = test system: common ragweed; assay type: in vivo, Ambrosia elatior; parameters: key to Plant response rating, Ragweed: 0 = no effect, 100 = complete control
Summary of the method: as §1

[10] = test system: soybean; assay type: in vivo, Glycine max
Summary of the method: as §1

[11] = 125 g ai/ha, scale 0 (no effect) to 100 (complete control), visual, 12 to 14 days, preemergence
[12] = 250 g ai/ha, scale 0 to 100 (0 no effect, 100 complete control), visual, 12 to 14 days, preemergence
[13] = Postemergence, 250 g ai/ha, scale 0 to 100, 0 no effect, 100 complete control
[14] = postemergence, 62 g ai/ha, scale 0 to 100
[15] = Postemergence, 125 g ai/ha, scale 0 to 100, 0 no effect, 100 complete control
[16] = Preemergence, 500 g ai/ha, scale 0 to 100, 0 no effect, 100 complete control

CCn1nc(C(C)(C)C)cc1C(=O)Nc1cccc(C(=O)NC2CC2)c1 [Compound 44]
Plant response rating (0 = no effect, 100 = complete control), Surinam Grass ([1]; 62 g ai/ha, preemergence): 10 | Plant response rating, Surinam Grass [1, 11]: 10 | Plant response rating, Surinam Grass [1, 12]: 10 | Plant response rating, Surinam Grass [1, 13]: 40 | Plant response rating, Surinam Grass [1, 14]: 40 | Plant response rating (0 = no effect, 100 = complete control), Corn ([2]; 62 g ai/ha, preemergence): 0 | Plant response rating, Corn [2, 11]: 0 | Plant response rating, Corn [2, 12]: 0 | Plant response rating, Corn [2, 15]: 70 | Plant response rating, Corn [2, 13]: 80 | Plant response rating, Corn [2, 14]: 70 | Plant response rating (0 = no effect, 100 = complete control), Foxtail, Giant ([3]; 62 g ai/ha, preemergence): 10 | Plant response rating, Foxtail, Giant [3, 11]: 10 | Plant response rating, Foxtail, Giant [3, 12]: 10 | Plant response rating, Foxtail, Giant [3, 15]: 30 | Plant response rating, Foxtail, Giant [3, 13]: 50 | Plant response rating, Foxtail, Giant [3, 14]: 30 | Plant response rating (0 = no effect, 100 = complete control), Johnsongrass ([4]; 62 g ai/ha, preemergence): 30 | Plant response rating, Johnsongrass [4, 11]: 30 | Plant response rating, Johnsongrass [4, 12]: 50 | Plant response rating, Johnsongrass [4, 15]: 30 | Plant response rating, Johnsongrass [4, 13]: 40 | Plant response rating, Johnsongrass [4, 14]: 30 | Plant response rating (0 = no effect, 100 = complete control), Lambsquarters ([5]; 62 g ai/ha, preemergence): 90 | Plant response rating, Lambsquarters [5, 11]: 100 | Plant response rating, Lambsquarters [5, 12]: 100 | Plant response rating, Lambsquarters [5, 13]: 90 | Plant response rating, Lambsquarters [5, 14]: 90 | Plant response rating (0 = no effect, 100 = complete control), Morningglory ([6]; 62 g ai/ha, preemergence): 0 | Plant response rating, Morningglory [6, 11]: 0 | Plant response rating, Morningglory [6, 12]: 0 | Plant response rating, Morningglory [6, 13]: 80 | Plant response rating, Morningglory [6, 14]: 50 | Plant response rating (0 = no effect, 100 = complete control), Nightshade ([7]; 62 g ai/ha, preemergence): 80 | Plant response rating, Nightshade [7, 11]: 90 | Plant response rating, Nightshade [7, 12]: 100 | Plant response rating (0 = no effect, 100 = complete control), Nutsedge, Yellow ([8]; 62 g ai/ha, preemergence): 0 | Plant response rating, Nutsedge, Yellow [8, 11]: 0 | Plant response rating, Nutsedge, Yellow [8, 12]: 0 | Plant response rating, Nutsedge, Yellow [8, 13]: 20 | Plant response rating, Nutsedge, Yellow [8, 14]: 20 | Plant response rating (0 = no effect, 100 = complete control), Ragweed ([9]; 62 g ai/ha, preemergence): 0 | Plant response rating, Ragweed [9, 11]: 30 | Plant response rating, Ragweed [9, 12]: 70 | Plant response rating, Ragweed [9, 13]: 90 | Plant response rating, Ragweed [9, 14]: 50 | Plant response rating (0 = no effect, 100 = complete control), Soybean ([10]; 62 g ai/ha, preemergence): 0 | Plant response rating, Soybean [10, 11]: 10 | Plant response rating, Soybean [10, 12]: 10 | Plant response rating, Soybean [10, 13]: 100 | Plant response rating, Soybean [10, 14]: 100

CCn1nc(C(C)(C)C)cc1C(=O)Nc1cc(C(=O)N(C)C)ccn1 [Compound 156, 2-[[[3-(1,1-dimethylethyl)-1-ethyl-1H-pyrazol-5-yl]carbonyl]amino]-N,N-dimethyl-4-pyridinecarboxamide]
Surinam Grass plant response rating [1, 16]: 95 | pest or weed control at 62 g/ha ([1]; Urochloa decumbens, pre-emergence, 312 h, 62 g ai/ha, preemergence, scale 0 to 100, read-out: Plant response rating, Surinam Grass): 75% | pest or weed control at 125 g/ha ([1]; Urochloa decumbens, pre-emergence, 312 h, 125 g ai/ha, scale 0 (no effect) to 100 (complete control), visual, 12 to 14 days, read-out: Plant response rating, Surinam Grass): 88% | Corn plant response rating [2, 16]: 50 | Corn plant response rating (crop injury, 0 = no effect, 100 = complete kill) at 62 g/ha ([2]; Zea mays, pre-emergence, 312 h, 62 g ai/ha, preemergence, scale 0 to 100): 15% | Corn plant response rating (crop injury, 0 = no effect, 100 = complete kill) at 125 g/ha ([2]; Zea mays, pre-emergence, 312 h, 125 g ai/ha, scale 0 (no effect) to 100 (complete control), visual, 12 to 14 days): 38% | Corn plant response rating (crop injury, 0 = no effect, 100 = complete kill) at 250 g/ha ([2]; Zea mays, pre-emergence, 312 h, 250 g ai/ha, scale 0 to 100 (0 no effect, 100 complete control), visual, 12 to 14 days): 40% | Foxtail, Giant plant response rating [3, 16]: 95 | pest or weed control at 62 g/ha ([3]; Setaria faberi, pre-emergence, 312 h, 62 g ai/ha, preemergence, scale 0 to 100, read-out: Plant response rating, Foxtail, Giant): 75% | pest or weed control at 125 g/ha ([3]; Setaria faberi, pre-emergence, 312 h, 125 g ai/ha, scale 0 (no effect) to 100 (complete control), visual, 12 to 14 days, read-out: Plant response rating, Foxtail, Giant): 83% | pest or weed control at 250 g/ha ([3]; Setaria faberi, pre-emergence, 312 h, 250 g ai/ha, scale 0 to 100 (0 no effect, 100 complete control), visual, 12 to 14 days, read-out: Plant response rating, Foxtail, Giant): 85% | Johnsongrass plant response rating [4, 16]: 100 | pest or weed control at 62 g/ha ([4]; Sorghum halepense, pre-emergence, 62 g ai/ha, preemergence, scale 0 to 100, read-out: Plant response rating, Johnsongrass): 80% | pest or weed control at 125 g/ha ([4]; Sorghum halepense, pre-emergence, 125 g ai/ha, scale 0 (no effect) to 100 (complete control), visual, 12 to 14 days, read-out: Plant response rating, Johnsongrass): 85% | pest or weed control at 62 g/ha ([5]; Chenopodium album, pre-emergence, 62 g ai/ha, preemergence, scale 0 to 100, read-out: Plant response rating, Lambsquarters): 100% | pest or weed control at 125 g/ha ([5]; Chenopodium album, pre-emergence, 125 g ai/ha, scale 0 (no effect) to 100 (complete control), visual, 12 to 14 days, read-out: Plant response rating, Lambsquarters): 100% | Lambsquarters plant response rating [5, 16]: 100 | pest or weed control at 62 g/ha ([6]; Ipomoea, pre-emergence, 62 g ai/ha, preemergence, scale 0 to 100, read-out: Plant response rating, Morningglory): 8% | pest or weed control at 125 g/ha ([6]; Ipomoea, pre-emergence, 125 g ai/ha, scale 0 (no effect) to 100 (complete control), visual, 12 to 14 days, read-out: Plant response rating, Morningglory): 60% | Morningglory plant response rating [6, 16]: 100 | Nightshade plant response rating [7, 16]: 100 | pest or weed control at 62 g/ha ([7]; pre-emergence, 62 g ai/ha, preemergence, scale 0 to 100, read-out: Plant response rating, Nightshade): 75% | pest or weed control at 125 g/ha ([7]; pre-emergence, 125 g ai/ha, scale 0 (no effect) to 100 (complete control), visual, 12 to 14 days, read-out: Plant response rating, Nightshade): 93% | pest or weed control at 62 g/ha ([8]; Cyperus, pre-emergence, 62 g ai/ha, preemergence, scale 0 to 100, read-out: Plant response rating, Nutsedge, Yellow): 35% | pest or weed control at 125 g/ha ([8]; Cyperus, pre-emergence, 125 g ai/ha, scale 0 (no effect) to 100 (complete control), visual, 12 to 14 days, read-out: Plant response rating, Nutsedge, Yellow): 60% | Nutsedge, Yellow plant response rating [8, 16]: 85 | pest or weed control at 62 g/ha ([9]; Ambrosia artemisiifolia, pre-emergence, 62 g ai/ha, preemergence, scale 0 to 100, read-out: Plant response rating, Ragweed): 90% | pest or weed control at 125 g/ha ([9]; Ambrosia artemisiifolia, pre-emergence, 125 g ai/ha, scale 0 (no effect) to 100 (complete control), visual, 12 to 14 days, read-out: Plant response rating, Ragweed): 100% | Ragweed plant response rating [9, 16]: 100 | plant injury at 62 g/ha ([10]; Glycine max, pre-emergence, 62 g ai/ha, preemergence, scale 0 to 100, read-out: Plant response rating, Soybean): 33% | plant injury at 125 g/ha ([10]; Glycine max, pre-emergence, 125 g ai/ha, scale 0 (no effect) to 100 (complete control), visual, 12 to 14 days, read-out: Plant response rating, Soybean): 50% | Soybean plant response rating [10, 16]: 100
